Test results as given in ChEMBL document CHEMBL5653615 (J Biol Chem, 2013).

Assays:
[1] = molecular target: Mast/stem cell growth factor receptor Kit (Homo sapiens) (UniProt P10721); assay: Inhibition of human c-Kit at 500 nM by HotSpot assay relative to control
[2] = molecular target: Ephrin type-A receptor 4 (Homo sapiens) (UniProt P54764); assay: Inhibition of human EPHA4 at 500 nM by HotSpot assay relative to control
[3] = molecular target: T1, Inhibitor of nuclear factor kappa-B kinase subunit alpha (Homo sapiens) (UniProt O15111); assay: Inhibition of human IKKa at 500 nM by HotSpot assay relative to control
T1 sequence (whole entry): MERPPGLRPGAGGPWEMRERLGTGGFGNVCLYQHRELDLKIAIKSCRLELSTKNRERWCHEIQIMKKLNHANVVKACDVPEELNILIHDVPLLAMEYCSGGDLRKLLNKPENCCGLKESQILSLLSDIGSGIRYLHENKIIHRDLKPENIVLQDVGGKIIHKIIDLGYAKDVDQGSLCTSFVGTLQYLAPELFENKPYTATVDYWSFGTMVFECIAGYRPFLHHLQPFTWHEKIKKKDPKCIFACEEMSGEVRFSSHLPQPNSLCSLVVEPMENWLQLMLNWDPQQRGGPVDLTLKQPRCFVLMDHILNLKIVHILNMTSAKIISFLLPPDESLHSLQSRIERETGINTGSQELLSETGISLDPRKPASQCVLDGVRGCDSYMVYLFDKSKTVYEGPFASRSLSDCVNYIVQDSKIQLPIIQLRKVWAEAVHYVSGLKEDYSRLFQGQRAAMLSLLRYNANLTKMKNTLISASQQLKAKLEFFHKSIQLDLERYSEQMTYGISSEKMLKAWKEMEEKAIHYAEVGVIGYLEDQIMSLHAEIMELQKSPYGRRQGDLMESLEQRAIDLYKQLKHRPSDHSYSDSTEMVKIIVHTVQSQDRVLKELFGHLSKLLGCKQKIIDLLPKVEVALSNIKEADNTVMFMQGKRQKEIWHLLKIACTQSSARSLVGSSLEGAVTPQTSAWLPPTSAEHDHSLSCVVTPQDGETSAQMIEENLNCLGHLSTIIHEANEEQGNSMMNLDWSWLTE

[4] = molecular target: Vascular endothelial growth factor receptor 2 (Homo sapiens) (UniProt P35968); assay: Inhibition of human KDR at 500 nM by HotSpot assay relative to control
Vascular endothelial growth factor receptor 2 (Homo sapiens), sequence (P35968 whole entry): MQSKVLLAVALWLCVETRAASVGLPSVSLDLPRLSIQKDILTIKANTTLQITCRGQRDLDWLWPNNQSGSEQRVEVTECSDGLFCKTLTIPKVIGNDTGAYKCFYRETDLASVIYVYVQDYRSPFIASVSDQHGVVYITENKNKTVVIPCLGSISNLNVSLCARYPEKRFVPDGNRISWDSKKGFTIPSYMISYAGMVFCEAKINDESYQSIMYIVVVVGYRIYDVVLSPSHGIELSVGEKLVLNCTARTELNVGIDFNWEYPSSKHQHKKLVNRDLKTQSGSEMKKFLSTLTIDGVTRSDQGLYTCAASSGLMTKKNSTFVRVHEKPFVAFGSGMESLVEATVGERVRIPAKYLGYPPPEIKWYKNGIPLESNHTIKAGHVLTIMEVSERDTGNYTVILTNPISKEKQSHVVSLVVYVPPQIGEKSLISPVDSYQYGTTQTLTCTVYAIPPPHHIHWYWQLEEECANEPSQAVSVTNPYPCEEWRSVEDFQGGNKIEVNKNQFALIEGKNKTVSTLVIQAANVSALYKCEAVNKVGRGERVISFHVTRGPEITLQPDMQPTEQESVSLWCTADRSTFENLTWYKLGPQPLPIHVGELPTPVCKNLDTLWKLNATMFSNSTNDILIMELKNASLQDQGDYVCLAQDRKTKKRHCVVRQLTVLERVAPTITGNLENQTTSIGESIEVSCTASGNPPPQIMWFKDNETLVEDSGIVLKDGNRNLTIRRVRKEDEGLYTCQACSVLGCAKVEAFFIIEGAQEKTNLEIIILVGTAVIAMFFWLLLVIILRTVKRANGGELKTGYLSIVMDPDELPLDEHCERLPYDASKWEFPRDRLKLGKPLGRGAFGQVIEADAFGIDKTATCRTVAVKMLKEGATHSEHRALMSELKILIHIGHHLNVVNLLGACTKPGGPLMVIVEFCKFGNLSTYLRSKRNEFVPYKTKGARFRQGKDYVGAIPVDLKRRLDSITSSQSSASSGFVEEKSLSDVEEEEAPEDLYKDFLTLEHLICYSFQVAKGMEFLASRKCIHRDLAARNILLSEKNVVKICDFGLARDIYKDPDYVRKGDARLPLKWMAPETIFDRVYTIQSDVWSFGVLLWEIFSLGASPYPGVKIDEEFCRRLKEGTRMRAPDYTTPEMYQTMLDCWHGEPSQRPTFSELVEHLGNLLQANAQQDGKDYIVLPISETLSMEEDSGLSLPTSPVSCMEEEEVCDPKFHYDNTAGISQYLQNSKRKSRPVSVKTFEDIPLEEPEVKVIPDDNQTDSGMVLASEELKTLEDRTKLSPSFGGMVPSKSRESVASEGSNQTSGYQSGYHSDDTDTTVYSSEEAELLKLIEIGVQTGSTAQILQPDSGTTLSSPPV

[5] = molecular target: T2, Dual specificity mitogen-activated protein kinase kinase 6 (Homo sapiens) (UniProt P52564); assay: Inhibition of human MKK6 at 500 nM by HotSpot assay relative to control
T2 sequence (whole entry): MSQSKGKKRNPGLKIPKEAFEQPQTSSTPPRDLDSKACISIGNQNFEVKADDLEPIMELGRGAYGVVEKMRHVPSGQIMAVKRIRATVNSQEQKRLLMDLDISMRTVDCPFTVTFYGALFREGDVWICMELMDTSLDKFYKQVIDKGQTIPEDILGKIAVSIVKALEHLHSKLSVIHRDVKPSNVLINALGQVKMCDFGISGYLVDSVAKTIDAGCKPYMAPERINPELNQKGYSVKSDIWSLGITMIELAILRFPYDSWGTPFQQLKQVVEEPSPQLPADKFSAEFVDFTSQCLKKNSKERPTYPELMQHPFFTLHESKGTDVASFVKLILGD

[6] = molecular target: Serine/threonine-protein kinase PAK 4 (Homo sapiens) (UniProt O96013); assay: Inhibition of human PAK4 at 500 nM by HotSpot assay relative to control
Serine/threonine-protein kinase PAK 4 (Homo sapiens), sequence (O96013 whole entry, looked up): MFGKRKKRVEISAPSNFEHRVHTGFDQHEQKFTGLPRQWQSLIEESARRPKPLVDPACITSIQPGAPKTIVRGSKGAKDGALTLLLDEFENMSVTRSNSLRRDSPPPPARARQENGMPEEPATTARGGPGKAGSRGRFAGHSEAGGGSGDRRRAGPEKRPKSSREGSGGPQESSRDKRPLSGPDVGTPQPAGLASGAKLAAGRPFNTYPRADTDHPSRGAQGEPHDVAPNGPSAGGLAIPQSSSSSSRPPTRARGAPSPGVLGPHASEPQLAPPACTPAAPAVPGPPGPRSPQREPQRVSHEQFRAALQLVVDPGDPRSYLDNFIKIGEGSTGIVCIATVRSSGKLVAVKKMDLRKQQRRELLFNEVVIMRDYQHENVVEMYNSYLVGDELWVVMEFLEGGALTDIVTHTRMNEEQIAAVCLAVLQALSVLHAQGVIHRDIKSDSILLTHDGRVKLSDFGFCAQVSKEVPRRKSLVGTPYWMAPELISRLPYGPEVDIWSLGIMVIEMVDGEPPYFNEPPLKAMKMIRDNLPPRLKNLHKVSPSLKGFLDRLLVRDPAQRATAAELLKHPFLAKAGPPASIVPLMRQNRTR

[7] = molecular target: T3, Serine/threonine-protein kinase D1 (Homo sapiens) (UniProt Q15139); assay: Inhibition of human PRKD1 at 500 nM by HotSpot assay relative to control
T3 sequence (whole entry): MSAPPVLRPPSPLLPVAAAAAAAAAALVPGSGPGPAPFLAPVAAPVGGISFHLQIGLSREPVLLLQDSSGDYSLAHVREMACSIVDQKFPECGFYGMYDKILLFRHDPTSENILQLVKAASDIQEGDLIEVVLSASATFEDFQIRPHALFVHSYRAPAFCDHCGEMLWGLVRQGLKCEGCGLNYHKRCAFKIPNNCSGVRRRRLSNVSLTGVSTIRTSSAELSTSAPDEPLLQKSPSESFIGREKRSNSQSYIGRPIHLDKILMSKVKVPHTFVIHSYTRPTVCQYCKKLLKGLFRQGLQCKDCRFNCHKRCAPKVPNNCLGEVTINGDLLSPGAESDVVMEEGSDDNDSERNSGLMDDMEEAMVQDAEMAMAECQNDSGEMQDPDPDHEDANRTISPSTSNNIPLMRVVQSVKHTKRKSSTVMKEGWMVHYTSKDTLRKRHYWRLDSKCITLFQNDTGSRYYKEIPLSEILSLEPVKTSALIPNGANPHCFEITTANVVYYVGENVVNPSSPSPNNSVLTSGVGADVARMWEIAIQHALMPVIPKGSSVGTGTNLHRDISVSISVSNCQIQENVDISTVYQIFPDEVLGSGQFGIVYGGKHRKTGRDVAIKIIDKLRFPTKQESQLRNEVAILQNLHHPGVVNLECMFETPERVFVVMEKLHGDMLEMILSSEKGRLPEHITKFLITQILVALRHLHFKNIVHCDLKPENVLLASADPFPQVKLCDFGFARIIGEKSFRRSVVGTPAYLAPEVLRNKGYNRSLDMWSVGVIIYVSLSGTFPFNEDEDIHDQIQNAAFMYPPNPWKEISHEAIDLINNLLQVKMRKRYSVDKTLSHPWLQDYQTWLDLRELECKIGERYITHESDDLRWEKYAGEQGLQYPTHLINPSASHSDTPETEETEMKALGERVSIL

[8] = molecular target: T4, cAMP-dependent protein kinase catalytic subunit PRKX (Homo sapiens) (UniProt P51817); assay: Inhibition of human PRKX at 500 nM by HotSpot assay relative to control
T4 sequence (whole entry): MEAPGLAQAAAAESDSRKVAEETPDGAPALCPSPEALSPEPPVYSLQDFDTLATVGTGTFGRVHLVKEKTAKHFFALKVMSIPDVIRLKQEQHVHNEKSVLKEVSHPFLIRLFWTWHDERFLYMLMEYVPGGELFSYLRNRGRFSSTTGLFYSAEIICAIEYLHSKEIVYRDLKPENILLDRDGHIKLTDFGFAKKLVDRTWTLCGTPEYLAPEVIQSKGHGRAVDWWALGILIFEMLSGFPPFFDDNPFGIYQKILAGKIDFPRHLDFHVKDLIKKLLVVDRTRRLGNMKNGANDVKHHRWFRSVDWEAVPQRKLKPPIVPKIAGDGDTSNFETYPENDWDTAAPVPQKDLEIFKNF

[9] = molecular target: SRSF protein kinase 2 (Homo sapiens) (UniProt P78362); assay: Inhibition of human SRPK2 at 500 nM by HotSpot assay relative to control
SRSF protein kinase 2 (Homo sapiens), sequence (P78362 whole entry, looked up): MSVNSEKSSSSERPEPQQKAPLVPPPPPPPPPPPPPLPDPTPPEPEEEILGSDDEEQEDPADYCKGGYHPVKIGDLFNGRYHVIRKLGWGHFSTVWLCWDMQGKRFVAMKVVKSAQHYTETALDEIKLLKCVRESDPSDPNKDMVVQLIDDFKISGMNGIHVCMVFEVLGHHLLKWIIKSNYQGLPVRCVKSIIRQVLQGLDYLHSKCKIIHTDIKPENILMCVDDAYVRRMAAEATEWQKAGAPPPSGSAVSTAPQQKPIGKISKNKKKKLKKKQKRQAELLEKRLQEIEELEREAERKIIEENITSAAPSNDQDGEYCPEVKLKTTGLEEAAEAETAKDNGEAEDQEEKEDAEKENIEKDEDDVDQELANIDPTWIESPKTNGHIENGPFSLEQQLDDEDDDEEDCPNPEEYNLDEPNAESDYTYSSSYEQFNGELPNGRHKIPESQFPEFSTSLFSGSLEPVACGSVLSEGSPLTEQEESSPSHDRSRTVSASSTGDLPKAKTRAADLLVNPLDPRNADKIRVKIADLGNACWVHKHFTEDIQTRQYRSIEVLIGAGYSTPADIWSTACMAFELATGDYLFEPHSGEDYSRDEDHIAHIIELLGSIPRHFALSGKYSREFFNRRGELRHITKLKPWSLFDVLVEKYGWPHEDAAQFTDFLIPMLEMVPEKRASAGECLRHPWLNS

[10] = molecular target: Serine/threonine-protein kinase 16 (Homo sapiens) (UniProt O75716); assay: Inhibition of human STK16 at 500 nM by HotSpot assay relative to control
Serine/threonine-protein kinase 16 (Homo sapiens), sequence (O75716 whole entry, the tested form may be a part): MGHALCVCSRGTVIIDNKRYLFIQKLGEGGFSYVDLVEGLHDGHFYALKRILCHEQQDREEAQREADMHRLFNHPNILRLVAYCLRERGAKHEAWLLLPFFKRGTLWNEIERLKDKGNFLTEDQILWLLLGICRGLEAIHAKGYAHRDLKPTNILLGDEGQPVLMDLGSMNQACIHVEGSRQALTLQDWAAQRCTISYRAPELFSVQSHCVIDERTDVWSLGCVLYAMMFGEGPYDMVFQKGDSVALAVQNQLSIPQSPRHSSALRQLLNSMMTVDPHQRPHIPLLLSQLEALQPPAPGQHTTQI

[11] = molecular target: Insulin-like growth factor 1 receptor (Homo sapiens, UniProt P08069); assay: Inhibition of inactive form of IGF-1R (unknown origin) kinase domain incubated for 1 hr by [gamma-33P]ATP assay

Ephrin type-A receptor 4 (Homo sapiens), sequence (P54764 whole entry): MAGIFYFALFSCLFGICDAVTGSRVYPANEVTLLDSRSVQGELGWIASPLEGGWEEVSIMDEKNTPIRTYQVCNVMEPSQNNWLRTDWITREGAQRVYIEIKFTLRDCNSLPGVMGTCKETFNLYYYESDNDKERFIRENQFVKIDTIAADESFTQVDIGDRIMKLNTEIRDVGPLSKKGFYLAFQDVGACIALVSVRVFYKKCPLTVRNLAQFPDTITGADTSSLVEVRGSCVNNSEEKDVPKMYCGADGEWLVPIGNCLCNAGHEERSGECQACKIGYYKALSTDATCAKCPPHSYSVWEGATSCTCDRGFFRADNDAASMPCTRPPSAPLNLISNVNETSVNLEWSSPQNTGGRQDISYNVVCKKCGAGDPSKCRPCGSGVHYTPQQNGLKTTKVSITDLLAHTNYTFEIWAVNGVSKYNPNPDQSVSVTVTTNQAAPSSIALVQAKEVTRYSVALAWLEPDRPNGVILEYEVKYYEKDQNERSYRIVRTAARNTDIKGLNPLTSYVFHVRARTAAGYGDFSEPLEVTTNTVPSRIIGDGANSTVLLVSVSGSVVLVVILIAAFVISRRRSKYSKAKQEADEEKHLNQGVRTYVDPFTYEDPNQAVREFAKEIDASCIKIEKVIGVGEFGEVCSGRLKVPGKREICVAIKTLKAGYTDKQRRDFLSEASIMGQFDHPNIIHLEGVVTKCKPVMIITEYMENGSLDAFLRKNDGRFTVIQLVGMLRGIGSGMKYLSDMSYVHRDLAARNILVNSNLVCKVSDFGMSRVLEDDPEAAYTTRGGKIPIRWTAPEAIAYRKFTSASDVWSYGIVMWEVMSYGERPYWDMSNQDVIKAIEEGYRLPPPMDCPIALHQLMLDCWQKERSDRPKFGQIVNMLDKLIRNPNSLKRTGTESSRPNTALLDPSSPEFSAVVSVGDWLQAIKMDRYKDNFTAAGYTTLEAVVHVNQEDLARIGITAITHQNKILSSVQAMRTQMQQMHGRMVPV
Mast/stem cell growth factor receptor Kit (Homo sapiens), sequence (P10721 whole entry): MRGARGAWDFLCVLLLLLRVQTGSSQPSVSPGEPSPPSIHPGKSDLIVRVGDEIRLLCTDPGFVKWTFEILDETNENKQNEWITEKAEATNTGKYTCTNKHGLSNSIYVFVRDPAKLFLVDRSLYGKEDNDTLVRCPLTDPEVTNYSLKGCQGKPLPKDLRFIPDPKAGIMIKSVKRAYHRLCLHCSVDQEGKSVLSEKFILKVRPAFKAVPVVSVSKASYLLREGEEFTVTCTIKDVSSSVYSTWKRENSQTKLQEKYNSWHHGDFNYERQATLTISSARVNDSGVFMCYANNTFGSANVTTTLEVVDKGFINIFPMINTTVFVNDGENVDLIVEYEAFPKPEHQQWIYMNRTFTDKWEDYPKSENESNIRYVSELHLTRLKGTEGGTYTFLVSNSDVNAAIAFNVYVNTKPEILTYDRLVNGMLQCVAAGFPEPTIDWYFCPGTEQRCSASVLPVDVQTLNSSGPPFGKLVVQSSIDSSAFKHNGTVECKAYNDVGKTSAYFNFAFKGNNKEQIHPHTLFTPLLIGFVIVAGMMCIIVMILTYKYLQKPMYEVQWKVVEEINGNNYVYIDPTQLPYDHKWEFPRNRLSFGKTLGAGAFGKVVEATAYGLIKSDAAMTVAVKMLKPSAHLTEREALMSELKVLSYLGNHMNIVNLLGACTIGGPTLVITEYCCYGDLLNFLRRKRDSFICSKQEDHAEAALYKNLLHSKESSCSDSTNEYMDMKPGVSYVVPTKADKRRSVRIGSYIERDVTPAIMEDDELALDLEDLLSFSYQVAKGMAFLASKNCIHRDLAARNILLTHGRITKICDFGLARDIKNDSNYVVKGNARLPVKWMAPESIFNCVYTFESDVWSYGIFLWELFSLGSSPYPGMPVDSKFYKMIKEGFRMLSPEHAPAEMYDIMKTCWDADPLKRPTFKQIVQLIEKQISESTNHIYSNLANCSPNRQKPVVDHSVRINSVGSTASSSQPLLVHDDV

Oc1n[nH]c2nnc(-c3c(-c4ccccc4)nn4ccccc34)cc12
inhibition [1]: 0.91% | inhibition [2]: -8.13% | inhibition [3]: -0.4% | inhibition [4]: -5.2% | inhibition [5]: 8.78% | inhibition [6]: -0.93% | inhibition [7]: -0.59% | inhibition [8]: -3.08% | inhibition [9]: 0.47% | inhibition [10]: 1.39% | IC50 [11]: 10.2 µM

Nc1n[nH]c2nnc(-c3c(-c4ccccc4)nn4ccccc34)cc12
inhibition [1]: 2.89% | inhibition [2]: 14.1% | inhibition [3]: 2.52% | inhibition [4]: -1.19% | inhibition [5]: 9.06% | inhibition [6]: -1.44% | inhibition [7]: 31.6% | inhibition [8]: -0.73% | inhibition [9]: 26.2% | inhibition [10]: -7.84% | IC50 [11]: 32.5 µM
